The values that follow are results of earlier work, collected in patent US20230404944A1, “CANNABINOID ENCAPSULATION TECHNOLOGY” (ZELIRA THERAPEUTICS OPERATIONS PTY LTD, priority 2020, published 2023).

As for `C=C(C)[C@@H]1CCC(C)=C[C@H]1c1c(O)cc(CCCCC)cc1O` [CBD, cannabidiol], the “Oral bioavailability in plasma” value (plasma) is reported as “approximately 6%”. The “Oral bioavailability in tissues” value (tissues) is given as roughly 1%.
